Measured values taken from patent US9533983B2, “Antiplatelet agent” (Mitsubishi Tanabe Pharma Corporation, priority 2009, dated 2017).

Tested on: Collagen-Induced Platelet Aggregation
Assay: Platelet aggregation inhibitory activity: collagen-induced platelet aggregation in platelet rich plasma
Assay type: cell-based
Details: Cavia porcellus, guinea pig PRP
Method: (§1) A blood of a guinea pig was sampled by using a 1/10 volume of a 3.8% sodium citrate as a platelet aggregation inhibitor, and a platelet rich plasma (PRP) was separated by centrifuging the blood sample at 1100 rpm for 10 min. After fractionating the PRP in the upper layer, the lower layer was centrifuged at 3000 rpm for 10 min to fractionate the platelet poor plasma (PPP). To 100 μL of PRP, a 1 μL solution of each compound was added, and after still standing at 37° C. for 1 min, the mixture was stirred at 37° C. for 1 min by a stirrer. Then, 11 μL of collagen, ristocetin, or ADP was added thereto to induce the platelet aggregation. The platelet aggregation ability was measured by using the mCM hematolaser 313M (L-M-S Inc.). Based on the assumption that a light transmittance of PPP corresponds to a 100% coagulation value, an aggregation rate at each concentration of the compound was determined, then, an IC50 value was calculated therefrom.
[Platelet Aggregation Inhibitory Activities: Collagen-Induced Platelet Aggregation]

Row | Compound | IC50 [nM]
1 | CCc1nc(-c2nc3cc(C(F)(F)F)cnc3n2-c2ccc(OC)nc2)co1 [Example 172, 2-(2-ethyl-1,3-oxazol-4-yl)-3-(6-methoxypyridin-3-yl)-6-(trifluoromethyl)-3H-imidazo[4,5-b]pyridine] | 275
2 | COc1cnc(-n2c(-c3cc(C)on3)nc3cc(C(F)(F)F)cnc32)cn1 [Example 154, 3-(5-methoxypyrazine-2-yl)-2-(5-methylisoxazol-3-yl)-6-(trifluoromethyl)-3H-imidazo[4,5-b]pyridine] | 129
3 | COc1cnc(-n2c(-c3ccn(C)n3)nc3cc(C(F)(F)F)cnc32)cn1 [Example 153, 3-(5-methoxypyrazine-2-yl)-2-(1-methyl-1H-pyrazol-3-yl)-6-(trifluoromethyl)-3H-imidazo[4,5-b]pyridine] | 291
4 | COc1ccc(-n2c(-c3ccc(OC)nn3)nc3cc(C(F)(F)F)ccc32)cn1 [Example 9, 2-(6-methoxypyridazin-3-yl)-1-(6-methoxypyridin-3-yl)-5-(trifluoromethyl)-1H-benzimidazole] | 150
5 | CNc1ccc(-n2c(-c3ccccn3)nc3cc(C(F)(F)F)cnc32)cn1 [Example 5, N-methyl-5-[2-pyridin-2-yl-6-(trifluoromethyl)-3H-imidazo[4,5-b]pyridin-3-yl]pyridin-2-amine] | 89
6 | COc1ccc(-n2c(-c3ccccn3)nc3cc(OC(C)C)cnc32)cn1 [Example 145, 6-isopropoxy-3-(6-methoxypyridin-3-yl)-2-pyridin-2-yl-3H-imidazo[4,5-b]pyridine] | 74
7 | COc1ccc(-n2c(-c3ccc[nH]3)nc3cc(C(F)(F)F)cnc32)cn1 [Example 10, 3-(6-methoxypyridin-3-yl)-2-(1H-pyrrol-2-yl)-6-(trifluoromethyl)-3H-imidazo[4,5-b]pyridine] | 18
8 | COc1ccc(-n2c(-c3ccn(C)n3)nc3cc(C(F)(F)F)cnc32)cn1 [Example 73, 3-(6-methoxypyridin-3-yl)-2-(1-methyl-1H-pyrazol-3-yl)-6-(trifluoromethyl)-3H-imidazo[4,5-b]pyridine] | 80
9 | COc1ccc(-n2c(-c3ccc(Br)cn3)nc3cc(C(F)(F)F)ccc32)nn1 [Example 35, 2-(5-bromopyridin-2-yl)-1-(6-methoxypyridazin-3-yl)-5-(trifluoromethyl)-1H-benzimidazole] | 44
10 | COc1ccc(-c2c(-c3ccccn3)nc3cc(C(F)(F)F)ccn23)cn1 [Example 190, 3-(6-methoxypyridin-3-yl)-2-pyridin-2-yl-7-(trifluoromethyl)imidazo[1,2-a]pyridine] | 218
11 | COc1cnc(-n2c(-c3cnc(C#N)cn3)nc3cc(C(F)(F)F)cnc32)cn1 [Example 157] | 74
12 | COc1cnc(-n2c(-c3cscn3)nc3cc(C(F)(F)F)cnc32)cn1 [Example 148, 3-(5-methoxypyrazine-2-yl)-2-(1,3-thiazol-4-yl)-6-(trifluoromethyl)-3H-imidazo[4,5-b]pyridine] | 81
13 | COc1cnc(-n2c(-c3cnn(C)c3)nc3cc(C(F)(F)F)cnc32)cn1 [Example 165, 3-(5-methoxypyrazine-2-yl)-2-(1-methyl-1H-pyrazol-4-yl)-6-(trifluoromethyl)-3H-imidazo[4,5-b]pyridine] | 203
14 | COc1ccc(-c2c3ccc(C(F)(F)F)cc3nn2-c2ccccn2)cn1 [Example 188, 3-(6-methoxypyridin-3-yl)-2-pyridin-2-yl-6-(trifluoromethyl)-2H-indazole] | 30
15 | COc1ccc(-n2c(-c3cn(C)nn3)nc3cc(C(F)(F)F)ccc32)nn1 [Example 163, 1-(6-methoxypyridazin-3-yl)-2-(1-methyl-1H-1,2,3-triazol-4-yl)-5-(trifluoromethyl)-1H-benzimidazole] | 125
16 | COc1ccc(-n2c(-c3ccccn3)nc3cc(OCC4CC4)cnc32)cn1 [Example 171, 6-(cyclopropylmethoxy)-3-(6-methoxypyridin-3-yl)-2-pyridin-2-yl-3H-imidazo[4,5-b]pyridine] | 91

Row | Compound | IC50 [nM]
17 | COc1ccc(-n2c(-c3cc(C)on3)nc3cc(OC(F)(F)F)ccc32)nn1 [Example 168, 1-(6-methoxypyridazin-3-yl)-2-(5-methylisoxazol-3-yl)-5-(trifluoromethoxy)-1H-benzimidazole] | 259
18 | COc1ccc(-n2c(-c3ccn(C)n3)nc3cc(OC(F)(F)F)ccc32)nn1 [Example 156, 1-(6-methoxypyridazin-3-yl)-2-(1-methyl-1H-pyrazol-3-yl)-5-(trifluoromethoxy)-1H-benzimidazole] | 76
19 | COc1ccc(-c2c(-c3ccc(F)cn3)nc3cc(C(F)(F)F)ccn23)cn1 [Example 191, 2-(5-fluoropyridin-2-yl)-3-(6-methoxypyridin-3-yl)-7-(trifluoromethyl)imidazo[1,2-a]pyridine] | 790
20 | CCOc1cnc2c(c1)nc(-c1ccccn1)n2-c1ccc(OC)nc1 [Example 170, 6-ethoxy-3-(6-methoxypyridin-3-yl)-2-pyridin-2-yl-3H-imidazo[4,5-b]pyridine] | 279
21 | COc1cnc(-n2c(-c3ccccn3)cc3cc(C(F)(F)F)cnc32)cn1 [Example 187, 1-(5-methoxypyrazine-2-yl)-2-pyridin-2-yl-5-(trifluoromethyl)-1H-pyrrolo[2,3-b]pyridine] | 40
22 | COc1ccc(-n2c(-c3ccccn3)nc3cccnc32)cn1 [Example 49] | 15000
23 | COc1ccc(-n2c(-c3cnn(C)c3)nc3cc(OC(F)(F)F)ccc32)nn1 [Example 166, 1-(6-methoxypyridazin-3-yl)-2-(1-methyl-1H-pyrazol-4-yl)-5-(trifluoromethoxy)-1H-benzimidazole] | 316
24 | COc1cnc(-n2c(-c3cn(C)nn3)nc3cc(C(F)(F)F)cnc32)cn1 [Example 164, 3-(5-methoxypyrazine-2-yl)-2-(1-methyl-1H-1,2,3-triazol-4-yl)-6-(trifluoromethyl)-3H-imidazo[4,5-b]pyridine] | 161
25 | COc1cnc(-n2c(-c3ccccn3)nc3cc(C(F)(F)F)ccc32)cn1 [Example 161, 1-(5-methoxypyrazine-2-yl)-2-pyridin-2-yl-5-(trifluoromethyl)-1H-benzimidazole] | 268
26 | COc1ccc(-n2c(-c3ccccn3)nc3c(C(F)(F)F)cccc32)cn1 [Example 37] | 2380
27 | Cc1ccc(-n2c(-c3ccccn3)nc3cc(C(F)(F)F)cnc32)cn1 [Example 118, 3-(6-methylpyridin-3-yl)-2-pyridin-2-yl-6-(trifluoromethyl)-3H-imidazo[4,5-b]pyridine] | 240
28 | CNc1ccc(-n2c(-c3ccc(F)cn3)nc3cc(C(F)(F)F)cnc32)cn1 [Example 149, 5-[2-(5-fluoropyridin-2-yl)-6-(trifluoromethyl)-3H-imidazo[4,5-b]pyridin-3-yl]-N-methylpyridin-2-amine] | 230
29 | COc1ccc(-n2c(-c3ccccn3)nc3ccccc32)cn1 [Example 23] | 4470
30 | CN(C)c1ccc(-n2c(-c3ccccn3)nc3cc(C(F)(F)F)cnc32)cn1 [Example 6, N,N-dimethyl-5-[2-pyridin-2-yl-6-(trifluoromethyl)-3H-imidazo[4,5-b]pyridin-3-yl]pyridin-2-amine] | 257
31 | COc1ccc(-n2c(-c3ccccn3)nc3ccc(C(F)(F)F)cc32)cn1 [Example 19] | 10400

Tested on: Ristocetin-Induced Platelet Aggregation
Assay: Platelet aggregation inhibitory activity: ristocetin-induced platelet aggregation in platelet rich plasma
Assay type: cell-based
Details: Cavia porcellus, guinea pig PRP
Method: as §1
[Platelet Aggregation Inhibitory Activities: Ristocetin-Induced Platelet Aggregation]

Row | Compound | IC50 [nM]
32 | COc1cnc(-n2c(-c3cc(C)on3)nc3cc(C(F)(F)F)cnc32)cn1 [Example 154, 3-(5-methoxypyrazine-2-yl)-2-(5-methylisoxazol-3-yl)-6-(trifluoromethyl)-3H-imidazo[4,5-b]pyridine] | 129
33 | COc1ccc(-n2c(-c3ccc(OC)nn3)nc3cc(C(F)(F)F)ccc32)cn1 [Example 9, 2-(6-methoxypyridazin-3-yl)-1-(6-methoxypyridin-3-yl)-5-(trifluoromethyl)-1H-benzimidazole] | 140
34 | COc1ccc(-n2c(-c3ccccn3)nc3cc(OC(C)C)cnc32)cn1 [Example 145, 6-isopropoxy-3-(6-methoxypyridin-3-yl)-2-pyridin-2-yl-3H-imidazo[4,5-b]pyridine] | 106
35 | COc1ccc(-n2c(-c3ccc[nH]3)nc3cc(C(F)(F)F)cnc32)cn1 [Example 10, 3-(6-methoxypyridin-3-yl)-2-(1H-pyrrol-2-yl)-6-(trifluoromethyl)-3H-imidazo[4,5-b]pyridine] | 15
36 | COc1ccc(-n2c(-c3ccn(C)n3)nc3cc(C(F)(F)F)cnc32)cn1 [Example 73, 3-(6-methoxypyridin-3-yl)-2-(1-methyl-1H-pyrazol-3-yl)-6-(trifluoromethyl)-3H-imidazo[4,5-b]pyridine] | 83
